According to patent US8426345B2, “Method of drug design” (Alchemia Limited, priority 2005, dated 2013):

Molecular target: T1, Human SST5 somatostatin receptor (Homo sapiens, UniProt P35346)
T1 construct: expressed in transfected cells; host or cells: HEK-293 EBNA cells (membranes)
Experiment: Filter plate radio-ligand binding assay for SST5 receptor ([125I]SST-14 displacement)
Conditions: 3P library; for % SST5 radio-ligand binding displaced at conc 0.25: conc 0.25 μM; for % SST5 radio-ligand binding displaced at conc 1.0: conc 1.0 μM

T1 sequence (P35346 whole entry): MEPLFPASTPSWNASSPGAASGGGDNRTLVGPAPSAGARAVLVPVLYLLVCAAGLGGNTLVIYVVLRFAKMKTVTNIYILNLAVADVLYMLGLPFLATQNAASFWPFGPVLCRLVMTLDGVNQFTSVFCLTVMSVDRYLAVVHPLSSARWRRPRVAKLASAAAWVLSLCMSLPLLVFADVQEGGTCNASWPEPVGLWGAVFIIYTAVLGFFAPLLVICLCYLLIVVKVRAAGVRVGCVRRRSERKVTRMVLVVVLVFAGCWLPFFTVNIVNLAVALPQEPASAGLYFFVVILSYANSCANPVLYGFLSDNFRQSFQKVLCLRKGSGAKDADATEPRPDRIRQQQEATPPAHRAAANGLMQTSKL

| SMILES | % SST5 radio-ligand binding displaced at conc 0.25 | % SST5 radio-ligand binding displaced at conc 1.0 | also measured |
| --- | --- | --- | --- |
| COC[C@H]1O[C@H](OCc2ccc3ccccc3c2)[C@H](NC(=O)CCN)[C@@H](OCc2ccc(Cl)c(Cl)c2)[C@@H]1O [Compound 113] | ++ (% SST5 radio-ligand binding displaced at conc (μM) >60%) | ++ (% SST5 radio-ligand binding displaced at conc (μM) >60%) | – |
| COC[C@H]1O[C@H](OCc2ccc3ccccc3c2)[C@H](NC(=O)CCN)[C@@H](OCc2cccc3ccccc23)[C@@H]1O [Compound 114] | ++ (% SST5 radio-ligand binding displaced at conc (μM) >60%) | ++ (% SST5 radio-ligand binding displaced at conc (μM) >60%) | – |
| COC[C@H]1O[C@H](OCc2ccc3ccccc3c2)[C@H](NC(=O)CCN)[C@@H](OCc2ccc(Cl)cc2Cl)[C@@H]1O [Compound 115] | + (% SST5 radio-ligand binding displaced at cone (μM) 60>+>40%) | ++ (% SST5 radio-ligand binding displaced at conc (μM) >60%) | – |
| COC[C@H]1O[C@H](OCc2ccc3ccccc3c2)[C@H](NC(=O)CCN)[C@@H](OCc2ccc3ccccc3n2)[C@@H]1O [Compound 116] | + (% SST5 radio-ligand binding displaced at cone (μM) 60>+>40%) | ++ (% SST5 radio-ligand binding displaced at conc (μM) >60%) | – |
| COC[C@H]1O[C@H](OCc2ccc3ccccc3c2)[C@H](NC(=O)CCN)[C@@H](OCc2cccc(Cl)c2Cl)[C@@H]1O [Compound 117] | ++ (% SST5 radio-ligand binding displaced at conc (μM) >60%) | ++ (% SST5 radio-ligand binding displaced at conc (μM) >60%) | – |
| COC[C@H]1O[C@H](OCc2ccc3ccccc3c2)[C@H](NC(=O)CCN)[C@@H](OCc2ccc(Oc3ccccc3)cc2)[C@@H]1O [Compound 118] | ++ (% SST5 radio-ligand binding displaced at conc (μM) >60%) | ++ (% SST5 radio-ligand binding displaced at conc (μM) >60%) | – |
| COC[C@H]1O[C@H](OCc2ccc3ccccc3c2)[C@H](NC(=O)CCCN)[C@@H](OC)[C@@H]1O [Compound 119] | – | – | % SST5 radio-ligand binding displaced at conc 50 (conc 50 μM): − (% SST5 radio-ligand binding displaced at cone (μM) −<40%); % SST5 radio-ligand binding displaced at conc 250 (conc 250 μM): + (% SST5 radio-ligand binding displaced at cone (μM) 60>+>40%); % SST5 radio-ligand binding displaced at conc 500 (conc 500 μM): ++ (% SST5 radio-ligand binding displaced at conc (μM) >60%) |
| COC[C@H]1O[C@H](OCc2ccc3ccccc3c2)[C@H](NC(=O)CCCN)[C@@H](OCc2ccc(Cl)cc2)[C@@H]1O [Compound 134] | – | ++ (% SST5 radio-ligand binding displaced at conc (μM) >60%) | % SST5 radio-ligand binding displaced at conc 0.001 (conc 0.001 μM): + (% SST5 radio-ligand binding displaced at cone (μM) 60>+>40%); % SST5 radio-ligand binding displaced at conc 0.10 (conc 0.10 μM): ++ (% SST5 radio-ligand binding displaced at conc (μM) >60%); % SST5 radio-ligand binding displaced at conc 0.5 (conc 0.5 μM): ++ (% SST5 radio-ligand binding displaced at conc (μM) >60%); % SST5 radio-ligand binding displaced at conc 10 (conc 10 μM): ++ (% SST5 radio-ligand binding displaced at conc (μM) >60%) |
| NCCCC(=O)N[C@H]1[C@@H](OCc2ccc3ccccc3c2)O[C@H](COCc2ccc3ccccc3c2)[C@@H](O)[C@@H]1OCc1ccc(Cl)cc1 [Compound 135] | − (% SST5 radio-ligand binding displaced at cone (μM) −<40%) | ++ (% SST5 radio-ligand binding displaced at conc (μM) >60%) | – |
| NCCCC(=O)N[C@H]1[C@@H](OCc2ccc3ccccc3c2)O[C@H](COCc2ccccc2)[C@@H](O)[C@@H]1OCc1ccc(Cl)cc1 [Compound 136] | − (% SST5 radio-ligand binding displaced at cone (μM) −<40%) | ++ (% SST5 radio-ligand binding displaced at conc (μM) >60%) | – |
| NCCCC(=O)N[C@H]1[C@@H](OCc2ccc3ccccc3c2)O[C@H](COCc2ccc(Cl)cc2)[C@@H](O)[C@@H]1OCc1ccc(Cl)cc1 [Compound 137] | − (% SST5 radio-ligand binding displaced at cone (μM) −<40%) | ++ (% SST5 radio-ligand binding displaced at conc (μM) >60%) | – |
| COC[C@H]1O[C@H](OCc2ccc3ccccc3c2)[C@H](NC(=O)C(N)CCN)[C@@H](OCc2ccc3ccccc3c2)[C@@H]1O (stereo partly shown) [Compound 138] | − (% SST5 radio-ligand binding displaced at cone (μM) −<40%) | − (% SST5 radio-ligand binding displaced at cone (μM) −<40%) | – |
| CNCCCC(=O)N[C@H]1[C@@H](OCc2ccc3ccccc3c2)O[C@H](COC)[C@@H](O)[C@@H]1OCc1ccc2ccccc2c1 [Compound 139] | − (% SST5 radio-ligand binding displaced at cone (μM) −<40%) | + (% SST5 radio-ligand binding displaced at cone (μM) 60>+>40%) | – |
| COC[C@H]1O[C@H](OCc2ccc3ccccc3c2)[C@H](NC(=O)CCC(C)N)[C@@H](OCc2ccc3ccccc3c2)[C@@H]1O (stereo partly shown) [Compound 140] | ++ (% SST5 radio-ligand binding displaced at conc (μM) >60%) | ++ (% SST5 radio-ligand binding displaced at conc (μM) >60%) | – |
| COC[C@H]1O[C@H](OCc2ccc3ccccc3c2)[C@H](NC(=O)CCCN(C)C)[C@@H](OCc2ccc3ccccc3c2)[C@@H]1O [Compound 141] | − (% SST5 radio-ligand binding displaced at cone (μM) −<40%) | − (% SST5 radio-ligand binding displaced at cone (μM) −<40%) | – |
| COC[C@H]1O[C@H](OCc2ccc3ccccc3c2)[C@H](NC(=O)CCCN2CCCC2)[C@@H](OCc2ccc3ccccc3c2)[C@@H]1O [Compound 143] | − (% SST5 radio-ligand binding displaced at cone (μM) −<40%) | − (% SST5 radio-ligand binding displaced at cone (μM) −<40%) | – |
| COC[C@H]1O[C@H](OCc2ccc3ccccc3c2)[C@H](NC(=O)CCCN)[C@@H](OCc2cccc(Cl)c2)[C@@H]1O [Compound 144] | + (% SST5 radio-ligand binding displaced at cone (μM) 60>+>40%) | ++ (% SST5 radio-ligand binding displaced at conc (μM) >60%) | – |
| COC[C@H]1O[C@H](OCc2ccc3ccccc3c2)[C@H](NC(=O)CCCN)[C@@H](OCc2cc(Cl)ccc2Cl)[C@@H]1O [Compound 145] | + (% SST5 radio-ligand binding displaced at cone (μM) 60>+>40%) | ++ (% SST5 radio-ligand binding displaced at conc (μM) >60%) | – |
| COC[C@H]1O[C@H](OCc2ccc3ccccc3c2)[C@H](NC(=O)CCCN)[C@@H](OCc2ccccc2Cl)[C@@H]1O [Compound 146] | − (% SST5 radio-ligand binding displaced at cone (μM) −<40%) | ++ (% SST5 radio-ligand binding displaced at conc (μM) >60%) | – |
| COC[C@H]1O[C@H](OCc2ccc3ccccc3c2)[C@H](NC(=O)CCCN)[C@@H](OCc2cccc3cccnc23)[C@@H]1O [Compound 147] | + (% SST5 radio-ligand binding displaced at cone (μM) 60>+>40%) | ++ (% SST5 radio-ligand binding displaced at conc (μM) >60%) | – |
| COC[C@H]1O[C@H](OCc2ccc3ccccc3c2)[C@H](NC(=O)CCCN)[C@@H](OCc2nc3ccccc3s2)[C@@H]1O [Compound 148] | − (% SST5 radio-ligand binding displaced at cone (μM) −<40%) | − (% SST5 radio-ligand binding displaced at cone (μM) −<40%) | – |
